Measurements: patent publication US20250034173A1, “PYRIDO[4,3-D]PYRIMIDINE COMPOUNDS” (PFIZER INC., priority 2023, published 2025)

Columns and labels:
[1] = target: KRAS Wild Type (Homo sapiens (Human), UniProt P01116); test: SPR binding affinity and kinetics, GTPγS-loaded KRAS Wild Type; details: GTPγS loaded protein, geomean
Source text: (§1) No additional regeneration was used.
(§2) Compound dissociation was monitored for at least 3600 seconds. […] No additional regeneration was used.
(§3) The adequateness of the fit was judged by c2 values and the randomness of residue distribution.

[2] = target: KRAS G12D (Homo sapiens (Human), UniProt P01116, G12D); test: SPR binding affinity and kinetics, GTPγS-loaded KRAS G12D; details: GTPγS loaded protein, geomean
Source text: as §1, §2, §3

[3] = target: KRAS G12C (Homo sapiens (Human), UniProt P01116, G12C); test: SPR binding affinity and kinetics, GTPγS-loaded KRAS G12C; details: GTPγS loaded protein, geomean
Source text: as §1, §2, §3

[4] = target: KRAS G12V (Homo sapiens (Human), UniProt P01116, G12V); test: SPR binding affinity and kinetics, GTPγS-loaded KRAS G12V; details: GTPγS loaded protein, geomean
Source text: as §1, §2, §3

[5] = target: HRAS Wild Type (Homo sapiens (Human), UniProt P01112); test: SPR binding affinity and kinetics, GTPγS-loaded HRAS Wild Type; details: GTPγS loaded protein, geomean
Source text: as §1, §2, §3

[6] = target: NRAS Wild Type (Homo sapiens (Human), UniProt P01111); test: SPR binding affinity and kinetics, GTPγS-loaded NRAS Wild Type; details: GTPγS loaded protein, geomean
Source text: as §1, §2, §3

[7] = system: H358 (non-small cell lung cancer cell line); test: KRAS Cell Titer Glo (CTG) cell proliferation assay, H358; assay type: cell-based; details: H358 cells, 7-day CTG, geomean IC50
Source text: (§4) The CellTiter-Glo® (CTG) Luminescent Cell Viability Assay is a homogeneous method of determining the number of viable cells in culture based on quantitation of the ATP present, an indicator of metabolically active cells. The CTG is designed for use with multi-well formats, making it ideal for automated high-throughput screening (HTS), cell proliferation and cytotoxicity assays. The homogeneous assay procedure involves adding the single reagent (CellTiter-Glo® Reagent) directly to cells cultured in serum-supplemented medium. Cell washing, removal of medium and multiple pipetting steps are not required. The system detects as few as 15 cells per well in a 384-well format in 10 minutes after adding reagent and mixing.
(§5) Cells are grown in humidified 5% CO2 incubator at 37° C. using the culture conditions outlined below. All cell culture media reagents were purchased from Gibco. Cell lines purchased from ATCC: H358 (non-small cell lung cancer cell line), SW620 (colorectal cancer cell line), PANC08.13 (RPM11640+10% FBS+10 units/mL Insulin, pancreatic cancer cell line). Test and control compounds are dispensed as nanoliter drops according to desired final concentrations in 0.1% DMSO using Echo Acoustic Dispenser onto 384 assay plates (Corning, Cat #3764) prior to cell seeding. Cells were seeded in 40 μL volume per well at the following cell densities (cells per well): H358 (300), SW620 (750), PANC 08.13 (600). Cells are incubated in the presence of compound for 7-days. Viability is determined on Day 7 using CellTiter-Glo® (CTG) Luminescent Cell Viability Assay (Promega). CTG is added to a […] per well and incubated at room temperature for 15 minutes before luminescence is captured using an EnVision Reader with LUM384 US protocol. Data is analyzed using Activity Base to determine compound response and will be represented either as a percent effect (PCTEFF) or percent control (PCTOCTL) as described: Zero percent effect control (ZPE) (Negative control)—100% DMSO. Hundred percent effect (HPE) (Positive control)—1 uM Trametinib (GSK1120212, MEK inhibitor) (4 nl of 10 mM and 36 nl of DMSO per well). The following equations/nomenclature are used (% Effect; PCTEFF) and (% of Control; PCTOCTL): PCTEFF: 100*(Raw_Data_Value−HPE/ZPE−HPE), PCTOCTL: 100*Raw_Data_Value/User_Defined_Array), where the User_Defined_Array is either summarized HPE or ZPE.
(§6) Cells with “nd” indicate compound not tested in that particular assay at time of writing. It is to be understood that the geomean IC50 data may change slightly over time with increasing repeat data (ie: increasing n #).

[8] = system: SW620 (colorectal cancer cell line); test: KRAS Cell Titer Glo (CTG) cell proliferation assay, SW620; assay type: cell-based; details: SW620 cells, 7-day CTG, geomean IC50
Source text: as §4, §5, §6

[9] = system: PANC08.13 (pancreatic cancer cell line); test: KRAS Cell Titer Glo (CTG) cell proliferation assay, PANC08.13; assay type: cell-based; details: PANC08.13 cells, 7-day CTG, geomean IC50
Source text: as §4, §5, §6

[10] = Homo sapiens, PANC-08-13, 168 h

Molecule | Kd [1] [nM] | Kd [2] [nM] | Kd [3] [nM] | Kd [4] [nM] | Kd [5] [nM] | Kd [6] [nM] | IC50 ([7]; Homo sapiens, NCI-H358, 168 h) [nM] | IC50 ([8]; Homo sapiens, SW-620, 168 h) [nM] | IC50 [9, 10] [nM] | IC50 [7] [nM] | IC50 [8] [nM] | IC50 [9] [nM]
COC/C=C1\CN2CCC[C@@]2(COc2nc3c4c(nc(-c5c6c(cc7[nH]ncc57)CCC[C@H]6OC)c(F)c4n2)OC[C@@H]2COCCCN32)C1 (single isomer, unassigned) [Example 58, (8aS)-4-fluoro-2-{[(2Z,7aS)-2-(2-methoxyethylidene)tetrahydro-1H-pyrrolizin-7a(5H)-yl]methoxy}-5-[(5R*)-5-methoxy-5,6,7,8-tetrahydro-1H-benzo[f]indazol-4-yl]-8a,9,12,13-tetrahydro-8H,11H-7,10-dioxa-1,3,6,13a-tetraazanaphtho[1,8-ab]heptalene] | 61 | 74 | 42 | 81 | > 10000 | > 10000 |  |  |  |  |  | 
Fc1c(-c2c(C3CC3)c(Cl)cc3[nH]ncc23)nc2c3c(nc(OC[C@@]45CCCN4CC(=C4CCOCC4)C5)nc13)N1CCCOC[C@H]1CO2 [Example 42, (8aS)-5-(6-chloro-5-cyclopropyl-1H-indazol-4-yl)-4-fluoro-2-{[(7aS)-2-(oxan-4-ylidene)tetrahydro-1H-pyrrolizin-7a(5H)-yl]methoxy}-8a,9,12,13-tetrahydro-8H,11H-7,10-dioxa-1,3,6,13a-tetraazanaphtho[1,8-ab]heptalene] | 68 | 24 | 33 | 32 |  |  | 288 | 233 | 44 |  |  | 
CN(C)C(=O)/C=C1\CN2CCC[C@@]2(COc2nc3c4c(nc(-c5c(C6CC6)c(Cl)cc6[nH]ncc56)c(F)c4n2)OC[C@@H]2COCCCN32)C1 [Example 43, (2Z)-2-[(7aS)-7a-({[(8aS)-5-(6-chloro-5-cyclopropyl-1H-indazol-4-yl)-4-fluoro-8a,9,12,13-tetrahydro-8H,11H-7,10-dioxa-1,3,6,13a-tetraazanaphtho[1,8-ab]heptalen-2-yl]oxy}methyl)tetrahydro-1H-pyrrolizin-2(3H)-ylidene]-N,N-dimethylacetamide] | 742 | 493 | 539 | 677 |  |  | > 9990 | > 9990 | 5510 |  |  | 
C=C1CN2CCC[C@@]2(COc2nc3c4c(nc(-c5c6c(cc7[nH]ncc57)CCCC6)c(F)c4n2)OC[C@@H]2COCCCN32)C1 [Example 50, (8aS)-4-fluoro-2-{[(7aS)-2-methylidenetetrahydro-1H-pyrrolizin-7a(5H)-yl]methoxy}-5-(5,6,7,8-tetrahydro-1H-benzo[f]indazol-4-yl)-8a,9,12,13-tetrahydro-8H,11H-7,10-dioxa-1,3,6,13a-tetraazanaphtho[1,8-ab]heptalene] | 53 | 31 | 47 | 42 |  |  | 206 | 75 | 105 |  |  | 
(1Z)-1-[(7aS)-7a-({[(8aS)-5-(6-chloro-5-cyclopropyl-1H-indazol-4-yl)-4-fluoro-8a,9,12,13-tetrahydro-8H,11H-7,10-dioxa-1,3,6,13a-tetraazanaphtho[1,8-ab]heptalen-2-yl]oxy}methyl)tetrahydro-1H-pyrrolizin-2(3H)-ylidene]propan-2-ol [Example 60] | 25 | 11 | 26 | 18 | > 10000 | > 10000 |  |  |  |  |  | 
(8aS)-5-(5-chloro-6-fluoro-1H-indazol-4-yl)-4-fluoro-2-{[(7aS)-2-methylidenetetrahydro-1H-pyrrolizin-7a(5H)-yl]methoxy}-8a,9,12,13-tetrahydro-8H,11H-7,10-dioxa-1,3,6,13a-tetraazanaphtho[1,8-ab]heptalene [Example 9] | 389 | 270 | 430 | 303 |  |  |  |  |  | 758 | 914 | 140

These reach a lower Kd [1]. Values come first.

Kd [1] [nM] | Kd [2] [nM] | Kd [3] [nM] | Kd [4] [nM] | Kd [5] [nM] | Kd [6] [nM] | IC50 ([7]; Homo sapiens, NCI-H358, 168 h) [nM] | IC50 ([8]; Homo sapiens, SW-620, 168 h) [nM] | IC50 [9, 10] [nM] | IC50 [7] [nM] | IC50 [8] [nM] | IC50 [9] [nM] | Molecule
6 | 4 | 7 | 6 |  |  | 52 | 60 | 13 |  |  |  | Fc1c(-c2c(C3CC3)c(Cl)cc3[nH]ncc23)nc2c3c(nc(OC[C@@]45CCCN4CC(=C4CC4)C5)nc13)N1CCCOC[C@H]1CO2 [Example 40, (8aS)-5-(6-chloro-5-cyclopropyl-1H-indazol-4-yl)-2-{[(7aS)-2-cyclopropylidenetetrahydro-1H-pyrrolizin-7a(5H)-yl]methoxy}-4-fluoro-8a,9,12,13-tetrahydro-8H,11H-7,10-dioxa-1,3,6,13a-tetraazanaphtho[1,8-ab]heptalene]
3 | 2 | 3 | 3 |  |  | 43 | 94 | 125 |  |  |  | OC/C=C1\CN2CCC[C@@]2(COc2nc3c4c(nc(-c5c(C6CC6)c(Cl)cc6[nH]ncc56)c(F)c4n2)OC[C@@H]2COCCCN32)C1 [Example 44, (2Z)-2-[(7aS)-7a-({[(8aS)-5-(6-chloro-5-cyclopropyl-1H-indazol-4-yl)-4-fluoro-8a,9,12,13-tetrahydro-8H,11H-7,10-dioxa-1,3,6,13a-tetraazanaphtho[1,8-ab]heptalen-2-yl]oxy}methyl)tetrahydro-1H-pyrrolizin-2(3H)-ylidene]ethan-1-ol]
1 | 1 | < 1 | 1 | > 10000 | > 10000 |  |  |  |  |  |  | C[C@@H]1CCCc2cc3[nH]ncc3c(-c3nc4c5c(nc(OC[C@@]67CCCN6C/C(=C\F)C7)nc5c3F)N3CCCOC[C@H]3CO4)c21 [Example 54, (8aS)-4-fluoro-2-{[(2Z,7aS)-2-(fluoromethylidene)tetrahydro-1H-pyrrolizin-7a(5H)-yl]methoxy}-5-[(5R)-5-methyl-5,6,7,8-tetrahydro-1H-benzo[f]indazol-4-yl]-8a,9,12,13-tetrahydro-8H,11H-7,10-dioxa-1,3,6,13a-tetraazanaphtho[1,8-ab]heptalene]
< 1 | < 1 | < 1 | < 1 | > 10000 | > 10000 |  |  |  |  |  |  | C=C1CN2CCC[C@@]2(COc2nc3c4c(nc(-c5c6c(cc7[nH]nc(Cl)c57)CCC[C@H]6C)c(F)c4n2)OC[C@@H]2COCCCN32)C1 [Example 62, (8aS)-5-[(5R)-3-chloro-5-methyl-5,6,7,8-tetrahydro-1H-benzo[f]indazol-4-yl]-4-fluoro-2-{[(7aS)-2-methylidenetetrahydro-1H-pyrrolizin-7a(5H)-yl]methoxy}-8a,9,12,13-tetrahydro-8H,11H-7,10-dioxa-1,3,6,13a-tetraazanaphtho[1,8-ab]heptalene]
5 | 3 | 4 | 5 |  |  |  |  |  | 21 | 38 | 11 | (8aS)-5-(6-chloro-5-cyclopropyl-1H-indazol-4-yl)-4-fluoro-2-{[(1S,7aS*)-1-methoxy-6-methylidenetetrahydro-1H-pyrrolizin-7a(5H)-yl]methoxy}-8a,9,12,13-tetrahydro-8H,11H-7,10-dioxa-1,3,6,13a-tetraazanaphtho[1,8-ab]heptalene [Example 61]
